Data: patent US20050245508A1, “Treatment of malignant gliomas with TGF-beta inhibitors” (SCIOS, Inc., priority 2003, published 2005)

Tested on: CCL64 mink lung epithelial cells
Assay: CCL64 TGF-β bioassay (growth, crystal violet)
Assay type: cell-based
Settings: human TGF-β1 and TGF-β2
Method: FIG. 1. Prevention of the growth inhibitory effects of recombinant and glioma-derived TGF-b1 and TGF-b2 by a TGF-β inhibitor (Compound No. 79 in Table 2). A. CCL64 cells were exposed to human recombinant TGF-b1 (filled symbols) or TGF-b2 (open symbols) (10 ng/ml) in the absence or presence of increasing concentrations of Comopund No. 79 for 72 h. B. CCL64 cells were maintained in serum-free medium containing heat-activated glioma cell SN (1:1) in the absence or presence of Compound No. 79 for 72 h. Growth was assessed by crystal violet assay (mean and SD, n=3).
The levels of bioactive TGF-β were determined using the CCL64 bioassay. Briefly, […] CCL64 cells were adhered to 96 well plates for 24 h, full medium was replaced by serum-free medium, and the cells were exposed to recombinant TGF-β1/2 or glioma cell culture supernatants diluted in serum-free medium for 72 h. Growth was assessed by crystal violet staining at 72 h. Glioma cell supernatants were harvested from confluent cultures maintained for 48 h in serum-free medium and heat-treated (5 min, 85° C.) to activate latent TGF-β (Leitlein et al., J. Immunol., 166:7238-7243 (2001)).

| Substance | EC50 of growth inhibitory effect on CCL64 cells [ng/mL] |
| --- | --- |
| TGF-β2: "Human recombinant TGF-β1 and TGF-β2 were obtained from Peprotech (London, UK)" | 0.5 |
| TGF-β1: "Human recombinant TGF-β1 and TGF-β2 were obtained from Peprotech (London, UK)" | 0.5 |
